Measured values published in patent US20260193239A1, “NOVEL COMPOUNDS” (Hoffmann-La Roche Inc., priority 2023, published 2026).

Tests used:
P-gp = biological target: T1, P-gp (Homo sapiens, UniProt P08183); assay: Transcellular P-gp assay; type: in vitro ADME; settings: LLC-PK1 cells over-expressing human P-gp; for Papp: read-out: Permeation
T1 construct: expressed in transfected cells; host or cells: LLC-PK1 cells (porcine kidney epithelial cells)
Text: The general assay uses transfected LLC-PK1 cells (porcine kidney epithelial cells) over-expressing human or mouse P-gp, cultured on 96 well semi-permeable filter membrane plates, where they form a polarized monolayer with tight junctions, and act as a barrier between the apical and basolateral compartment.
P-gp is expressed in the apical-facing membrane of the monolayer.
The tightness of the cell monolayer and functional activity of P-gp are confirmed by addition of a cell-impermeable marker, Lucifer yellow, and a reference P-gp substrate, edoxaban, respectively.

NLRP3 [1] = biological target: T2, NLRP3 (Homo sapiens, UniProt Q96P20); assay: THP-1 cells pyroptosis assay; type: cell-based; parameters: Seed THP-1 cells (25,000 cells/well) containing 1.0 μg/ml LPS; host or cells: THP-1 cells, LPS-primed and nigericin-stimulated; settings: 1 μg/ml LPS, nigericin 5 μM, resazurin readout
Procedure: The cells were routinely passaged and grown to confluency (~10^6 cells/ml). On the day of the experiment, THP-1 cells were harvested and resuspended into RPMI medium (without FBS). […] To this diluted cell solution was added LPS (Sigma #L4524) to give a 1 μg/ml Final Assay Concentration (FAC). 40 μl of the final preparation was aliquoted into each well of a 96-well plate. The plate thus prepared was used for compound screening.

NLRP3 [2] = biological target: T2, NLRP3; assay: Human whole blood IL-1β release assay; type: cell-based; parameters: Human whole blood in Li-heparin tubes was obtained from healthy donors; from tissue; host or cells: human whole blood from healthy donors, LPS-primed and nigericin-stimulated; settings: 1 μg/ml LPS, nigericin 10 μM, IL-1β by AlphaLisa
Text: For systemic delivery, the ability to inhibit NLRP3 when the compounds are present within the bloodstream is of great importance. For this reason, the NLRP3 inhibitory activity of a number of compounds in human whole blood was investigated in accordance with the following protocol.
Human whole blood in Li-heparin tubes was obtained from healthy donors from a volunteer donor panel.

T1 sequence (P08183 whole entry): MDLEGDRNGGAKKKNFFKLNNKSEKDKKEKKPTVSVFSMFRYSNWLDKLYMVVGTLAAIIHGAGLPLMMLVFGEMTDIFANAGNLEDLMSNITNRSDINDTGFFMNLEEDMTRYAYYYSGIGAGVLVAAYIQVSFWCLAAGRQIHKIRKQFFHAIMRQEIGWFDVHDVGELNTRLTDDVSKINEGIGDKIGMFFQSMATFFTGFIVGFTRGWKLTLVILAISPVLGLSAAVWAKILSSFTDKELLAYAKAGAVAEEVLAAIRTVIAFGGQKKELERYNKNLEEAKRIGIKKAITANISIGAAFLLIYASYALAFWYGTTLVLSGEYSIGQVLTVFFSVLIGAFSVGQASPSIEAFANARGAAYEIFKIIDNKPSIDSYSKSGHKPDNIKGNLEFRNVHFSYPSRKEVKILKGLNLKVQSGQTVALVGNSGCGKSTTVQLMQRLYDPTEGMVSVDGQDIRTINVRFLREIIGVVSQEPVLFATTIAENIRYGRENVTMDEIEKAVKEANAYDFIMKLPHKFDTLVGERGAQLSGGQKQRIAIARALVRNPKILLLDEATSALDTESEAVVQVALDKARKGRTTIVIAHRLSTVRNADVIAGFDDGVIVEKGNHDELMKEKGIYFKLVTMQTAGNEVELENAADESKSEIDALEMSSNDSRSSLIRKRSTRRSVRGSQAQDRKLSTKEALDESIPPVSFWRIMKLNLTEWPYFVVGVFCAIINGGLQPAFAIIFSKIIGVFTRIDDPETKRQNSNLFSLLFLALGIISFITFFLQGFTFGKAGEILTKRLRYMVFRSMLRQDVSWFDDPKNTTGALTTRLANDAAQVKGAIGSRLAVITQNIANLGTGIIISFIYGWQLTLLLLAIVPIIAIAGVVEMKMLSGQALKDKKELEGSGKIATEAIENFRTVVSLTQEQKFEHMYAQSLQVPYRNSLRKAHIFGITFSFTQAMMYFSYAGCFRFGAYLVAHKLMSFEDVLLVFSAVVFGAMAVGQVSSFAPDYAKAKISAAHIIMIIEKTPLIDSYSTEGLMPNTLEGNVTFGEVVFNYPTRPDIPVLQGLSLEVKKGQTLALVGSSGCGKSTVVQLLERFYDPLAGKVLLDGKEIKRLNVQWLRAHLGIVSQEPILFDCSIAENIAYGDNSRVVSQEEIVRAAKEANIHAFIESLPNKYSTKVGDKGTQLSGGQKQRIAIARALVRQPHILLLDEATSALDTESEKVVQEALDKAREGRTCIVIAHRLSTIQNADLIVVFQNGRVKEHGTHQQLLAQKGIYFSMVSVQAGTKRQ
T2 sequence (Q96P20 whole entry): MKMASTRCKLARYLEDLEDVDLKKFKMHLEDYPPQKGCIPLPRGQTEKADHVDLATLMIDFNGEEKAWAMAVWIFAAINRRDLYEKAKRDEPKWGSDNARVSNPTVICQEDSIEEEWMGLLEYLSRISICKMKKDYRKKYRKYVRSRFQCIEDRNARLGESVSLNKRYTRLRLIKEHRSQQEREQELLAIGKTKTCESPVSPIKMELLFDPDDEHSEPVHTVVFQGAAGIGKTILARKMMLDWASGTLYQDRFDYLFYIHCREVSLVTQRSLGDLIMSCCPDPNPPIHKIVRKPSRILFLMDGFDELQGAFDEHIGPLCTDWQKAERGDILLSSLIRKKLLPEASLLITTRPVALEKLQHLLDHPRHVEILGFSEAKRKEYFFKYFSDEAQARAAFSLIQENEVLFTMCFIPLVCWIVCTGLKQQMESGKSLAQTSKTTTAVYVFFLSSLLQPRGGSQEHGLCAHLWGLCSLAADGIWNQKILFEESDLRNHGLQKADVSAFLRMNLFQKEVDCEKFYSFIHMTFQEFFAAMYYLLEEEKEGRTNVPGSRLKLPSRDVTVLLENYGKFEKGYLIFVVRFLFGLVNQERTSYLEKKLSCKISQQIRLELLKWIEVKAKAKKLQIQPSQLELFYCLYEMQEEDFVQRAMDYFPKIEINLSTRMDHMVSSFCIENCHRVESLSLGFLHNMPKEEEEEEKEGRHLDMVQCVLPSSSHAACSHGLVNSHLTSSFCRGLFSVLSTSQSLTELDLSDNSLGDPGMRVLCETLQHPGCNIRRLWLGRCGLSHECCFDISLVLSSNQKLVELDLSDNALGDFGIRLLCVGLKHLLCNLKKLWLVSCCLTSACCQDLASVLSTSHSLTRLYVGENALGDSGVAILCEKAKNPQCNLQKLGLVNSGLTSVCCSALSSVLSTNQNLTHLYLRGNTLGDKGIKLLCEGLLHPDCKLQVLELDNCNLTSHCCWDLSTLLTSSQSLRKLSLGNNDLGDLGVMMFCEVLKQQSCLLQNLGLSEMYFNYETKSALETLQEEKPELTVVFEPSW

SMILES | efflux ratio (P-gp) | Papp (P-gp) [×10⁻⁶ cm/s] | IC50 (NLRP3 [1]) [nM] | IC50 (NLRP3 [2]) [nM] | Permeation (P-gp) [×10⁻⁶ cm/s]
CCN1CCC[C@@H](Nc2nnc(-c3c(C)cc4c(c3O)CCO4)n(CC)c2=O)C1 (atropisomer, axis not shown) [Example 2b, P-4-ethyl-6-[[(3R)-1-ethyl-3-piperidyl]amino]-3-(4-hydroxy-6-methyl-2,3-dihydrobenzofuran-5-yl)-1,2,4-triazin-5-one] | 8 | 3.7 |  |  | 
CCN1CCC[C@@H](Nc2nnc(-c3c(CO)cc4c(c3O)CCO4)n(C)c2=O)C1 (atropisomer, axis not shown) [Example 5, 3-[4-Hydroxy-6-(hydroxymethyl)-2,3-dihydrobenzofuran-5-yl]-4-methyl-6-[[(3R)-1-ethyl-3-piperidyl]amino]-1,2,4-triazin-5-one] |  |  | 139 |  | 
CCN1CCC[C@@H](Nc2nnc(-c3c(CO)cc4c(c3O)CCO4)n(C)c2=O)C1 (atropisomer, axis not shown) [Example 5a, (M or P)-3-[4-Hydroxy-6-(hydroxymethyl)-2,3-dihydrobenzofuran-5-yl]-4-methyl-6-[[(3R)-1-ethyl-3-piperidyl]amino]-1,2,4-triazin-5-one] |  |  | 84 | 103 | 
CCc1cc2c(c(O)c1-c1nnc(N[C@@H]3CCCN(CCO)C3)c(=O)n1C)CCO2 (atropisomer, axis not shown) [Example 8b, P-3-(6-ethyl-4-hydroxy-2,3-dihydrobenzofuran-5-yl)-6-[[(3R)-1-(2-hydroxyethyl)-3-piperidyl]amino]-4-methyl-1,2,4-triazin-5-one] | 1 | 0.9 | 16 | 64 | 
CCn1c(-c2c(C)cc3c(c2O)CCO3)nnc(N[C@@H]2CCCN(CCO)C2)c1=O (atropisomer, axis not shown) [Example 9b, (P or M)-4-ethyl-6-[[(3R)-1-(2-hydroxyethyl)-3-piperidyl]amino]-3-(4-hydroxy-6-methyl-2,3-dihydrobenzofuran-5-yl)-1,2,4-triazin-5-one] | 2 | 0.8 | 118 | 204 | 
CCN1CCC[C@@H](Nc2nnc(-c3c(C)cc(C(F)(F)F)cc3O)n(C)c2=O)C1 (atropisomer, axis not shown) [Reference Example RE-B, 6-[[(3R)-1-Ethyl-3-piperidyl]amino]-3-[2-hydroxy-6-methyl-4-(trifluoromethyl)phenyl]-4-methyl-1,2,4-triazin-5-one, reference compound] | 7.6 | 5.6 |  |  | 
CCc1cc2c(c(O)c1-c1nnc(N[C@@H]3CCCN(CC)C3)c(=O)n1C)CCO2 (single isomer, unassigned) [Example 1b] | 11 | 4.5 |  |  | 
CCN1CCC[C@@H](Nc2nnc(-c3c(C)cc4c(c3O)CCO4)n(C)c2=O)C1 (single isomer, unassigned) [Example 3b] | 10 | 5.3 |  |  | 
CCN1CCC[C@@H](Nc2nnc(-c3c(CO)cc4c(c3O)CCO4)n(C)c2=O)C1 (single isomer, unassigned) [Example 5b, (P or M)-3-[4-Hydroxy-6-(hydroxymethyl)-2,3-dihydrobenzofuran-5-yl]-4-methyl-6-[[(3R)-1-ethyl-3-piperidyl]amino]-1,2,4-triazin-5-one] |  |  | 966 |  | 
CCN1CCC[C@@H](Nc2nnc(-c3c(COC)cc4c(c3O)CCO4)n(C)c2=O)C1 (single isomer, unassigned) [Example 6a, (M or P)-3-[4-Hydroxy-6-(methoxymethyl)-2,3-dihydrobenzofuran-5-yl]-4-methyl-6-[[(3R)-1-ethyl-3-piperidyl]amino]-1,2,4-triazin-5-one] |  |  | > 1000 |  | 
CCN1CCC[C@@H](Nc2nnc(-c3c(COC)cc4c(c3O)CCO4)n(C)c2=O)C1 (single isomer, unassigned) [Example 6b] | 1 | 1.1 | 15 | 29 | 
CCN1CCCC(Nc2nnc(-c3c(COC)cc4c(c3O)CCC4)n(C)c2=O)C1 [Example 7b, P-6-[[(3R)-1-ethyl-3-piperidyl]amino]-3-[4-hydroxy-6-(methoxymethyl)indan-5-yl]-4-methyl-1,2,4-triazin-5-one] | 12 | 5.1 |  |  | 
CCN1CCC[C@@H](Nc2nnc(-c3ccc4c(c3O)CCO4)n(C)c2=O)C1 [Reference Example RE-A, 6-[[(3R)-1-Ethyl-3-piperidyl]amino]-3-(4-hydroxy-2,3-dihydrobenzofuran-5-yl)-4-methyl-1,2,4-triazin-5-one, reference compound] |  |  |  |  | 24.9
